This note sets out measurements from the supplement of paper PMC10307832.

Common to all, as to test: relative viability (nuclei count vs DMSO), 5 days (fraction); higher = more cells survive
Compound in assay [1]: Cc1cnc(CNC(=O)c2c(=O)c3ccc(N4CCCN(C)CC4)nc3n3c2sc2ccccc23)cn1 [CX-5461]
The method, boiled down: (§1)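 Only plates meeting two conditions passed: control CV below 25% and at least one doubling. Lung cancer cell lines, kept overnight at 37 °C in 1536-well plates, were pinned with five library-drug doses (not always all listed) √10 apart on vehicle-anchored plates and grown 5 days without medium change. A one-step fix, permeabilisation and Hoechst stain preceded 4× imaging and MetaXpress nuclear counting. Viability equals treated-well nuclei divided by vehicle-well nuclei, as the median over plates.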

Compound in assay [2]: O=C(Nc1cc(C(F)(F)F)cc(C(F)(F)F)c1)c1cc(Cl)ccc1O [IMD-0354]
A digest of the protocol: as §1

Compound in assay [3]: Cc1cnc(CNC(=O)c2c(=O)c3ccc(N4CCCN(C)CC4)nc3n3c2sc2ccccc23)cn1 [CX-5461] + CC(=O)c1c(C)c2cnc(Nc3ccc(N4CCNCC4)cn3)nc2n(C2CCCC2)c1=O [Palbociclib] (partner 0.5 µM)
A digest of the protocol:
(§2)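 Lung cancer cell lines were seeded in 1536-well plates and dosed by pin tool the next day, with either a single drug or a fixed anchor-drug dose combined with five library-drug doses (not always all listed) spaced in √10 steps. Five days later, one step fixed the cells and stained their nuclei (final 0.05% Triton X-100, 1% formaldehyde, 1 ug/ml Hoechst), and nuclei were counted on 4× images. Relative viability is the nuclei count in treated wells divided by the count in vehicle wells, and each value is the median of duplicate plates.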

Compound in assay [4]: Cc1cnc(CNC(=O)c2c(=O)c3ccc(N4CCCN(C)CC4)nc3n3c2sc2ccccc23)cn1 [CX-5461] + Cc1cc(Nc2cc(N3CCN(C)CC3)nc(Sc3ccc(NC(=O)C4CC4)cc3)n2)n[nH]1 [Tozasertib] (partner 0.1 µM)
A digest of the protocol: as §2

With UMC-11, the relative viability in assay [1] (0.01 µM) turned out to be 1.09; in assay [1] (0.03162 µM) it was 0.994; in assay [1] (0.1 µM), 0.928; in assay [1] (0.3162 µM) it was 0.909; in assay [1] (1 µM) it was 0.382; in assay [2] (0.04 µM) it was 1.1. The relative viability in assay [2] (0.1265 µM) is 1.04; in assay [2] (0.4 µM), 0.551; in assay [2] (1.265 µM), 0.224; in assay [2] (4 µM), 0.271; in assay [3] (first compound 0.01 µM), 0.36; in assay [3] (first compound 0.03162 µM), 0.319. Also, the relative viability in assay [3] (first compound 0.1 µM) stood at 0.306; in assay [3] (first compound 0.3162 µM) it was 0.294; in assay [3] (first compound 1 µM), 0.241; in assay [4] (first compound 0.01 µM) it was 0.189; in assay [4] (first compound 0.03162 µM), 0.201; in assay [4] (first compound 0.1 µM), 0.204. Besides, the results for the relative viability in assay [4] (first compound 0.3162 µM) and in assay [4] (first compound 1 µM) were 0.198 and 0.243, respectively.
